The record followed here is US20070218456A1, “CELLULAR ASSAYS FOR SIGNALING RECEPTORS” (INVITROGEN CORPORATION, priority 2006, published 2007).

The test system of the test is T-REx™-GPR23-CRE-bla-CHO-K1 clone H6-E2. The test is described as follows: T-REx-GPR23-CRE-bla-CHO-K1 clone H6-E2 beta-lactamase reporter assay (induction). The note with it: for EC50: Cricetulus griseus. The format is cell-based, Chinese hamster. On the procedure:
Six clones selected for further testing were expanded and retested for their inducible GPR23 specific activity. The clones were plated at 25,000 cells per well in a 96 well black walled clear bottom tissue culture assay plate. The plates were than placed at 37° C. 5% CO2 for 24 hrs to allow the cells to attach to the assay plate. The complete media was then removed from the plate and replaced with assay media (DMEM+0.1% BSA) containing 100 ng/ml pertussis toxin with or without 1 μg/ml tetracycline. The plates were placed at 37° C. 5% CO2 for 16 hrs to allow the induced expression of the GPR23 receptor. The cells were then loaded with LiveBLAzer™-FRET B/G substrate (2 μM) containing solution D for 2 hrs. To determine the optimal cell density for this assay the cells were plated at 2,500, 5,000, 10,000, and 20,000 cells per well in a 384 well black walled clear bottom tissue culture assay plate in complete media (DMEM+10% FBS). The plates were than placed at 37° C. 5% CO2 for 24 hrs to allow the cells to attach to the assay plate. The complete media was then removed from the plate and replaced with assay media (DMEM+0.1% BSA) containing 100 ng/ml pertussis toxin and a four fold dilution series of doxycycline starting at 1 μg/ml. The plates were placed at 37° C./5% CO2 for 16 hrs to allow the induced expression of the GPR23 receptor. The cells were then loaded with LiveBLAzer™-FRET B/G substrate (2 μM) containing solution D for 2 hrs. The cells were plated at 20,000 cells per well in a 384 well black walled clear bottom tissue culture assay plate in complete media (DMEM+10% FBS). The plates were then placed at 37° C. 5% CO2 for 6 hrs to allow the cells to attach to the assay plate. The complete media was then removed from the plate and replaced with assay media (DMEM+0.1% BSA) containing 100 ng/ml pertussis toxin, 0%, 0.25%, 0.5%, or 1.0% DMSO, and a three fold dilution series of doxycycline starting at 1 μg/ml. The plates were placed at 37° C./5% CO2 for 16 hrs to allow the induced expression of the GPR23 receptor. The cells were then loaded with LiveBLAzer™-FRET B/G substrate (2 μM) containing solution D for 2 hrs. The cells were plated at 20,000 cells per well in a 384 well black walled clear bottom tissue culture assay plate in complete media (DMEM+10% FBS). The plates were than placed at 37° C. 5% CO2 for 6 hrs to allow the cells to attach to the assay plate. The complete media was then removed from the plate and replaced with assay media (DMEM+0.1% BSA) containing 100 ng/ml pertussis toxin, 0.5% DMSO, and a three fold dilution series of doxycycline starting at 1 μg/ml. The plates were placed at 37° C. 5% CO2 for 16, 20 or 24 hrs to allow the induced expression of the GPR23 receptor. The cells were then loaded with LiveBLAzer™-FRET B/G substrate (2 μM) containing solution D for 2 hrs. Dose response of T-REx-GPR23-CRE-bla CHO-K1 cells to Doxycycline. T-REx-GPR23-CRE-bla CHO-K1 cells were plated in Growth Media (+) and allowed to attach to the tissue culture plate for 6 hrs. They were then induced for GPR23 expression overnight with doxycycline for 16 hrs in Assay Media. Cells were then loaded with LiveBLAzer™-FRET B/G Substrate (CCF4-AM) for 2 hours. Fluorescence emission values at 460 nm and 530 nm were obtained using a standard florescence plate reader and the Blue/Green Emission Ratios were plotted against the indicated concentrations of doxycycline (FIG. 40).
For orientation: In a reporter assay the amount or activity of a reporter protein is the signal.

What is called EC50 is the concentration needed to bring the measured effect to its halfway point. For `C[C@H]1c2cccc(O)c2C(=O)C2=C(O)[C@]3(O)C(=O)C(C(N)=O)=C(O)[C@@H](N(C)C)[C@@H]3[C@@H](O)[C@@H]21` [Doxycycline], the maximum response ratio (20,000 cells per well) was 5.7 fold. In addition, the EC50 was found to be 3.3 ng/mL (16 h, 0% DMSO, 20,000 cells per well); 4 ng/mL (16 h, 0.25% DMSO, 20,000 cells per well); 4 ng/mL (16 h, 0.5% DMSO, 20,000 cells per well); 5.1 ng/mL (16 h, 1.0% DMSO, 20,000 cells per well); 1.3 ng/mL (16 h, 2,500 cells/well, 16 hrs induction); 1 ng/mL (16 h, 5,000 cells/well, 16 hrs induction). The concentration giving a half-maximal response (EC50) by setting is: (16 h, 10,000 cells/well, 16 hrs induction) 1.6 ng/mL; (16 h, 20,000 cells/well, 16 hrs induction) 2 ng/mL; (16 h, 16 hours induction, 0.5% DMSO) 4 ng/mL; (20 h, 20 hours induction, 0.5% DMSO) 1.9 ng/mL; (24 h, 24 hours induction, 0.5% DMSO) 2 ng/mL; (representative data, 16 hrs induction, 2 hours loading) 1.7 nM.
